The NIST ThermoML archive (doi:10.1021/je034223r)
Numbers after ± are expanded uncertainties.

Columns and labels:
[1] = excess molar enthalpy (molar enthalpy of mixing); xn = mol fraction of the nth substance listed; conditions: 298.15 K, 101.3 kPa, Liquid, Flow calorimetry
[2] = 298.15 K; 101.33 kPa; Liquid; Vibrating tube method
[3] = refractive index (Na D-line) (dimensionless); conditions: 298.15 K; 101.33 kPa; Liquid; Standard Abbe refractometry
[4] = molar heat capacity at constant pressure; conditions: 298.15 K; 101.33 kPa; Liquid; Flow calorimetry
[5] = heat capacity at constant pressure per volume; xn = mol fraction of the nth substance listed; conditions: 298.15 K, 101.3 kPa, Liquid, Flow calorimetry
[6] = refractive index (Na D-line) (dimensionless); xn = mol fraction of the nth substance listed; conditions: 298.15 K, 101.3 kPa, Liquid, refractometer
[7] = xn = mol fraction of the nth substance listed; conditions: 298.15 K, 101.3 kPa, Liquid, vibrating tube

C1COCO1 [1,3-dioxolane] + O=C1CCCCC1
excess molar enthalpy ([1]; x1 = 0.1): 0.0153 ± 0.000335 kcal/mol | excess molar enthalpy ([1]; x1 = 0.15): 0.0214 ± 0.000359 kcal/mol | excess molar enthalpy ([1]; x1 = 0.2): 0.0265 ± 0.000406 kcal/mol | excess molar enthalpy ([1]; x1 = 0.25): 0.0309 ± 0.00043 kcal/mol | excess molar enthalpy ([1]; x1 = 0.3): 0.0348 ± 0.000454 kcal/mol | excess molar enthalpy ([1]; x1 = 0.35): 0.0382 ± 0.000478 kcal/mol | excess molar enthalpy ([1]; x1 = 0.4): 0.0399 ± 0.000502 kcal/mol | excess molar enthalpy ([1]; x1 = 0.45): 0.0409 ± 0.000502 kcal/mol | excess molar enthalpy ([1]; x1 = 0.5): 0.041 ± 0.000502 kcal/mol | excess molar enthalpy ([1]; x1 = 0.55): 0.0404 ± 0.000502 kcal/mol | excess molar enthalpy ([1]; x1 = 0.6): 0.039 ± 0.000478 kcal/mol | excess molar enthalpy ([1]; x1 = 0.65): 0.0369 ± 0.000478 kcal/mol | excess molar enthalpy ([1]; x1 = 0.7): 0.0341 ± 0.000454 kcal/mol | excess molar enthalpy ([1]; x1 = 0.75): 0.0305 ± 0.00043 kcal/mol | excess molar enthalpy ([1]; x1 = 0.8): 0.0261 ± 0.000406 kcal/mol | excess molar enthalpy ([1]; x1 = 0.85): 0.0208 ± 0.000359 kcal/mol | excess molar enthalpy ([1]; x1 = 0.9): 0.0148 ± 0.000335 kcal/mol

C1COCO1 [1,3-dioxolane]
mass density [2]: 1058.67 ± 0.54 kg/m3 | refractive index [3]: 1.39797 ± 0.00075 | molar heat capacity at constant pressure [4]: 121.66 ± 0.25 J/K/mol

O=C1CCCC1 [cyclopentanone] + C1COCO1
excess molar enthalpy ([1]; x2 = 0.1): -0.000954 ± 0.000194 kcal/mol | excess molar enthalpy ([1]; x2 = 0.2): -0.00204 ± 0.000203 kcal/mol | excess molar enthalpy ([1]; x2 = 0.3): -0.0033 ± 0.000213 kcal/mol | excess molar enthalpy ([1]; x2 = 0.4): -0.00437 ± 0.00022 kcal/mol | excess molar enthalpy ([1]; x2 = 0.5): -0.00521 ± 0.000227 kcal/mol | excess molar enthalpy ([1]; x2 = 0.6): -0.00564 ± 0.000229 kcal/mol | excess molar enthalpy ([1]; x2 = 0.7): -0.00548 ± 0.000229 kcal/mol | excess molar enthalpy ([1]; x2 = 0.8): -0.00463 ± 0.000222 kcal/mol | excess molar enthalpy ([1]; x2 = 0.9): -0.00288 ± 0.00021 kcal/mol | heat capacity ([5]; x2 = 0.0645): 1713700 ± 2700 J/K/m3 | heat capacity ([5]; x2 = 0.1429): 1716000 ± 2700 J/K/m3 | heat capacity ([5]; x2 = 0.3008): 1720700 ± 2700 J/K/m3 | heat capacity ([5]; x2 = 0.3817): 1723100 ± 2700 J/K/m3 | heat capacity ([5]; x2 = 0.4603): 1725400 ± 2700 J/K/m3 | heat capacity ([5]; x2 = 0.5381): 1727400 ± 2700 J/K/m3 | heat capacity ([5]; x2 = 0.6191): 1729600 ± 2700 J/K/m3 | heat capacity ([5]; x2 = 0.6973): 1731600 ± 2700 J/K/m3 | heat capacity ([5]; x2 = 0.8468): 1734900 ± 2700 J/K/m3 | heat capacity ([5]; x2 = 0.928): 1736500 ± 2700 J/K/m3 | refractive index ([6]; x2 = 0.0815): 1.43248 ± 0.00021 | refractive index ([6]; x2 = 0.1569): 1.43014 ± 0.00021 | refractive index ([6]; x2 = 0.2322): 1.42774 ± 0.00021 | refractive index ([6]; x2 = 0.3155): 1.425 ± 0.00021 | refractive index ([6]; x2 = 0.3526): 1.42375 ± 0.00021 | refractive index ([6]; x2 = 0.3965): 1.42224 ± 0.00021 | refractive index ([6]; x2 = 0.4345): 1.42091 ± 0.00021 | refractive index ([6]; x2 = 0.4742): 1.41949 ± 0.00021 | refractive index ([6]; x2 = 0.5109): 1.41816 ± 0.00021 | refractive index ([6]; x2 = 0.5558): 1.4165 ± 0.00021 | refractive index ([6]; x2 = 0.5858): 1.41537 ± 0.00021 | refractive index ([6]; x2 = 0.6334): 1.41355 ± 0.00021 | refractive index ([6]; x2 = 0.6716): 1.41206 ± 0.00021 | refractive index ([6]; x2 = 0.7127): 1.41042 ± 0.00021 | refractive index ([6]; x2 = 0.7862): 1.4074 ± 0.00021 | refractive index ([6]; x2 = 0.8695): 1.40385 ± 0.00021 | refractive index ([6]; x2 = 0.9509): 1.40023 ± 0.00021 | mass density ([7]; x2 = 0.0808): 951.41 ± 0.49 kg/m3 | mass density ([7]; x2 = 0.1586): 958.77 ± 0.49 kg/m3 | mass density ([7]; x2 = 0.2251): 965.28 ± 0.49 kg/m3 | mass density ([7]; x2 = 0.3113): 974.02 ± 0.5 kg/m3 | mass density ([7]; x2 = 0.3507): 978.14 ± 0.5 kg/m3 | mass density ([7]; x2 = 0.4024): 983.65 ± 0.5 kg/m3 | mass density ([7]; x2 = 0.4295): 986.6 ± 0.5 kg/m3 | mass density ([7]; x2 = 0.4749): 991.62 ± 0.51 kg/m3 | mass density ([7]; x2 = 0.509): 995.47 ± 0.51 kg/m3 | mass density ([7]; x2 = 0.5451): 999.61 ± 0.51 kg/m3 | mass density ([7]; x2 = 0.5465): 999.76 ± 0.51 kg/m3 | mass density ([7]; x2 = 0.5891): 1004.75 ± 0.51 kg/m3 | mass density ([7]; x2 = 0.6248): 1009 ± 0.51 kg/m3 | mass density ([7]; x2 = 0.6813): 1015.89 ± 0.52 kg/m3 | mass density ([7]; x2 = 0.7075): 1019.14 ± 0.52 kg/m3 | mass density ([7]; x2 = 0.7891): 1029.57 ± 0.52 kg/m3 | mass density ([7]; x2 = 0.8629): 1039.38 ± 0.53 kg/m3
